Assay results from US8435978B2, “Substituted sulfonamide compounds” (Gruenenthal GmbH, priority 2006, dated 2013).

Experiments:
human B1R receptor = biological target: T1, human B1R receptor (Homo sapiens, UniProt P46663); assay: Functional study on the bradykinin receptor 1 (B1R), FLIPR Ca2+ assay, hB1R cells; type: cell-based; details: test substance 10 μM; hB1R CHO K1 cells; agonist Lys-Des-Arg9-bradykinin 0.5 nM; % inhibition compared with the maximum achievable inhibition
T1 construct: host or cells: CHO K1 cells (Chinese hamster ovary), stably transfected
T1 sequence (P46663 1-353): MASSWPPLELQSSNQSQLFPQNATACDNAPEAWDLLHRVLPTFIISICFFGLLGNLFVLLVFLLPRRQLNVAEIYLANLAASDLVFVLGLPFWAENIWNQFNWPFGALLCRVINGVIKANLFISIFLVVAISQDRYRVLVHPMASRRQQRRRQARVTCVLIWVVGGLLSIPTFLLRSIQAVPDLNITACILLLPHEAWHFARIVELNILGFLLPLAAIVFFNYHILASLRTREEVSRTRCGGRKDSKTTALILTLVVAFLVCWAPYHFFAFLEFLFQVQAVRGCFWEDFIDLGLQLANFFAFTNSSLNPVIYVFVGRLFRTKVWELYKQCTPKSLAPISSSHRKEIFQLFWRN
Procedure, shortened: (§1)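 Readout: peak Fluo-4 Ca2+ fluorescence, FLIPR. Stable CHO K1 hB1R or rB1R cells; cpd 10 μM, 10 min preincubation, then agonist (hB1R: Lys-Des-Arg9-BK 0.5 nM; rB1R: Des-Arg9-BK 100 nM). Value = % inhibition relative to maximal achievable inhibition.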

B1R receptor of the rat = biological target: T2, B1R receptor of the rat (Rattus norvegicus, UniProt P97583); assay: Functional study on the bradykinin receptor 1 (B1R), FLIPR Ca2+ assay, rB1R cells; type: cell-based; details: test substance 10 μM; rB1R CHO K1 cells; agonist Des-Arg9-bradykinin 100 nM; % inhibition compared with the maximum achievable inhibition
T2 construct: host or cells: CHO K1 cells (Chinese hamster ovary), stably transfected
T2 sequence (P97583 1-337): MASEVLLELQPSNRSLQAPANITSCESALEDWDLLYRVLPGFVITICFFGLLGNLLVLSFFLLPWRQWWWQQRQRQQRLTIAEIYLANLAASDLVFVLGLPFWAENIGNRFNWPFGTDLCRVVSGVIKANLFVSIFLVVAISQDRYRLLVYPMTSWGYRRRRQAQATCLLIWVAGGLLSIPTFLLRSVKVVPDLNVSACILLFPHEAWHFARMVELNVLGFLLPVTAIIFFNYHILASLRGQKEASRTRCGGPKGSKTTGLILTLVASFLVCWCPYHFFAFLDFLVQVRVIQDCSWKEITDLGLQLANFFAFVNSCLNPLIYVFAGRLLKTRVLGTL
Procedure, shortened: as §1

- B1R Antagonism, human [10 μM] % Inhibition (human B1R receptor): 101.66%
- B1R Antagonism, rat [10 μM] % Inhibition (B1R receptor of the rat): 106.6%
SMILES: COc1cc(C)c(S(=O)(=O)N2CCCCC2COCC(=O)N2CCN(C3CCN(C)CC3)CC2)c(C)c1 (centres unmarked) [Example 8, 2-[1-(4-methoxy-2,6-dimethyl-phenylsulfonyl)-piperidin-2-ylmethoxy]-1-[4-(1-methyl-piperidin-4-yl)-piperazin-1-yl]-ethanone]
